Source: patent US20160368879A1, “PHOTOACID GENERATOR, AND RESIN COMPOSITION FOR PHOTOLITHOGRAPHY” (SAN-APRO LTD., priority 2013, published 2016)

Tests used:
Format in all cases: physicochemical
[1] = Solvent solubility (butyl acetate, toluene or PGMEA); settings: for Solvent solubility PGMEA / Solvent solubility Butyl acetate / Solvent solubility Toluene: 25° C.; for solubility to a solvent (in words): summary of Tables 4 to 6
Description: In a test tube, 0.1 g of the synthesized photoacid generator was placed, and an organic solvent (butyl acetate, toluene or PGMEA) was added thereto in 0.2 g portions under a condition where the temperature was adjusted to 25° C. until the photoacid generator was completely dissolved. In this connection, in the case where the photoacid generator was not completely dissolved even when 20 g of the solvent was added, the photoacid generator was evaluated as one that was not dissolved.

[2] = Molar extinction coefficient of i-line (365 nm), UV-visible absorbance in acetonitrile; settings: 0.25 mmol/L in acetonitrile, cell length 1 cm
Description: The synthesized photoacid generator was diluted to 0.25 mmol/L with acetonitrile, and using an ultraviolet-visible spectrophotometer (UV-2550 available from SHIMADZU CORPORATION), the absorbance in a range of 200 nm to 500 nm was measured with a cell having an optical path length (a cell length) of 1 cm. The molar extinction coefficient of i-line (365 nm) (ε365) was calculated from the following equation.
[In the equation, […] represents the absorbance at 365 nm.]

[3] = Thermal decomposition temperature (TG/DTA, 2% weight reduction); settings: point of 2% weight reduction; 10° C./minute from 30° C. to 500° C.; nitrogen atmosphere
Description: The synthesized photoacid generator was measured for the change in weight under a temperature increasing condition of 10° C./minute from 30° C. to 500° C. under a nitrogen atmosphere using a thermal gravimetric/differential thermal analyzer (TG/DTA 6200, available from Seiko Instruments Inc.), and a point where the weight was reduced by 2% was defined as the thermal decomposition temperature.

Compound | Solvent solubility PGMEA [1] [wt %] | Solvent solubility Butyl acetate [1] [wt %] | Solvent solubility Toluene [1] [wt %] | Molar extinction coefficient [2] [L/mol/cm] | Thermal decomposition temperature [3] [°C] | solubility to a solvent (in words) [1]
CCCOc1ccc2c3c(cccc13)C(=O)N(OS(=O)(=O)C(F)(F)F)C2=O [Example A-2, 4-n-propoxy-1,8-naphthalimide trifluoromethanesulfonate] | 4 | 4.5 | 7.5 | 14000 | 238 | 
CC1(C)C2CCC1(CS(=O)(=O)ON1C(=O)c3cccc4cccc(c34)C1=O)C(=O)C2 (stereo not drawn) [A′-5, 1,8-naphthalimide-(+)-10-camphorsulfonate, reference compound] | <0.5 | <0.5 | <0.6 | 330 | 230 | insufficient
O=C1c2cccc3c(Oc4cccc(C(F)(F)F)c4)ccc(c23)C(=O)N1OS(=O)(=O)c1c(F)c(F)c(F)c(F)c1F [Example A-26, 4-(3-trifluoromethylphenoxy)-1,8-naphthalimide pentafluorobenzenesulfonate] | 9 | 11 | 10 | 16000 | 241 | 
O=C(Oc1cc2c3c(cccc3c1)C(=O)N(OS(=O)(=O)c1c(F)c(F)c(F)c(F)c1F)C2=O)c1c(F)c(F)c(F)c(F)c1F [Example A-32, 3-pentafluorobenzoyloxy-1,8-naphthalimide pentafluorobenzenesulfonate] | 19 | 24 | 22 | 1300 | 244 | 
CCCC(=O)Oc1cc2c3c(cccc3c1)C(=O)N(OS(=O)(=O)C(F)(F)F)C2=O [Example A-10, 3-butyroyloxy-1,8-naphthalimide trifluoromethanesulfonate] | >30 | >30 | >30 | 1600 | 234 | 
CC(C)(C)Cc1cc2c3c(cc(CC(C)(C)C)cc3c1)C(=O)N(OS(=O)(=O)C(F)(F)F)C2=O [Example A-14, 3,6-dineopentyl-1,8-naphthalimide trifluoromethanesulfonate] | 14 | 18 | 10 | 6200 | 248 | 
O=C1c2cccc3cccc(c23)C(=O)N1OS(=O)(=O)C(F)(F)F [A′-1, 1,8-naphthalimide trifluoromethanesulfonate, reference compound] | 2.4 | 2 | 4 | 330 | 225 | insufficient
O=C(Cc1ccccc1)c1ccc2c3c(cccc13)C(=O)N(OS(=O)(=O)C(F)(F)F)C2=O [Example A-4, 4-phenylacetyl-1,8-naphthalimide trifluoromethanesulfonate] | 4 | 4.5 | 7 | 3000 | 240 | 
O=C1c2cccc3c(C(F)(F)C(F)(F)C(F)(F)C(F)(F)C(F)(F)C(F)(F)C(F)(F)C(F)(F)F)ccc(c23)C(=O)N1OS(=O)(=O)c1c(F)c(F)c(F)c(F)c1F [Example A-37, 4-(heptadecafluoro-n-octyl)-1,8-naphthalimide pentafluorobenzenesulfonate] | 23 | 25 | 28 | 80 | 244 | 
O=C(Cc1ccccc1)c1ccc2c3c(cccc13)C(=O)N(OS(=O)(=O)c1c(F)c(F)c(F)c(F)c1F)C2=O [Example A-24, 4-phenylacetyl-1,8-naphthalimide pentafluorobenzenesulfonate] | 3.2 | 3.5 | 5.5 | 3000 | 242 | 
O=C1c2cccc3c(Br)ccc(c23)C(=O)N1OS(=O)(=O)C(F)(F)F [Example A-20, 4-bromo-1,8-naphthalimide trifluoromethanesulfonate] | 4 | 4.5 | 8 | 8500 | 230 | 
CC1(C)[C@@H]2CC[C@@]1(CS(=O)(=O)ON1C(=O)c3cccc4c([Si](C)(C)C)ccc(c34)C1=O)C(=O)C2 [Example A-58, 4-trimethylsilyl-1,8-naphthalimide-(+)-10-camphorsulfonate] | 2.5 | 2.5 | 3 | 5500 | 243 | 
CC1(C)C2CC[C@@]1(CS(=O)(=O)ON1C(=O)c3cccc4c(Sc5ccccc5)ccc(c34)C1=O)C(=O)C2 [Example A-47, 4-phenylthio-1,8-naphthalimide-(+)-10-camphorsulfonate] | 1.3 | 1.8 | 1.7 | 20000 | 244 | 
CC(C)Oc1ccc2c3c(cccc13)C(=O)N(OS(=O)(=O)c1c(F)c(F)c(F)c(F)c1F)C2=O [Example A-21, 4-isopropoxy-1,8-naphthalimide pentafluorobenzenesulfonate] | 4.5 | 4 | 3.5 | 16300 | 236 | 
O=C1c2cc(C34CC5CC(CC(C5)C3)C4)cc3cc(C45CC6CC(CC(C6)C4)C5)cc(c23)C(=O)N1OS(=O)(=O)C(F)(F)F [Example A-15, 3,6-diadamantyl-1,8-naphthalimide trifluoromethanesulfonate] | 7 | 7.5 | 8.5 | 6000 | 250 | 
CC(C)Oc1ccc2c3c(cccc13)C(=O)N(OS(=O)(=O)CC13CCC(CC1=O)C3(C)C)C2=O (stereo not drawn) [Example A-41, 4-isopropoxy-1,8-naphthalimide-(+)-10-camphorsulfonate] | 1.8 | 1.7 | 2 | 16300 | 239 | 
c1ccc(Sc2ccc([S+](c3ccccc3)c3ccccc3)cc2)cc1 [A′-2, reference compound] | >30 | <0.5 | <0.5 | 80 | 340 | 
CC1(C)C2CC[C@@]1(CS(=O)(=O)ON1C(=O)c3cc(C45CC6CC(CC(C6)C4)C5)cc4cc(C56CC7CC(CC(C7)C5)C6)cc(c34)C1=O)C(=O)C2 [Example A-55, 3,6-diadamantyl-1,8-naphthalimide-(+)-10-camphorsulfonate] | 1.7 | 2 | 2.1 | 6000 | 253 | 
